# In US11858935B1, “Pyrrolo[2,3-c][1,7]naphthyridine-2-carboxylic acid compounds as CK2 inhibitors” (KING FAISAL UNIVERSITY, priority 2023, dated 2024):
# Tests used:
# [1] = tested on: H1299 (lung); experiment: In vitro cytotoxic activity (MTT) assay, H1299; type: cell-based; settings: Homo sapiens, NCI-H1299; H1299 (lung) cells, exposed 96 hours; read-out: IC50, concentration eliciting 50% inhibition of cell proliferation
# Method: (§1) Compounds 1-16 were screened for their in vitro cytotoxic activity utilizing a 3-(4,5-dimethyl-thiazol-2-yl)-2,5-diphenyltetrazolium bromide (MTT) assay against selected cancer human cell lines consisting of PC3 (prostate), HCT116 (colon), A375 (melanoma), H1299 (lung), MIAPaCa-2 (pancreas), HL60 (leukemia), MCF7 (breast), MDA-MB-231 (breast) (T. Mosmann, J. Immunol. Meth., 1983, 65, 55-63). The cells were cultured at 37° C. in RMPI1640 medium supplemented with 10% fetal bovine serum, 50 IU/mL penicillin, and 50 μg/mL streptomycin in a 5% CO2 incubator. All cells were sub-cultured 3 times/week by trypsinisation. Viable cells were seeded and allowed to adhere for 12 h before a test drug was added in 96-well plates at an initial density of 1.0×10^5 cells/mL. Tumor cell lines were separately exposed to various concentrations of the tested compounds followed by incubation at a temperature of 37° C. during 96 h inside a medium of fresh RMPI 1640. Cells were subsequently incubated at 37° C. using MTT at 0.5 mg/mL during 4 h. After removal of supernatant, formazan crystals were dissolved in isopropanol and the optical density was measured at 570 nm. CX-4945 was used as a positive control.
# [2] = tested on: MCF7 (breast); experiment: In vitro cytotoxic activity (MTT) assay, MCF7; type: cell-based; settings: Homo sapiens; MCF7 (breast) cells, exposed 96 hours; read-out: IC50, concentration eliciting 50% inhibition of cell proliferation
# Method: as §1
# [3] = tested on: HCT116 (colon); experiment: In vitro cytotoxic activity (MTT) assay, HCT116; type: cell-based; settings: Homo sapiens, HCT-116; HCT116 (colon) cells, exposed 96 hours; read-out: IC50, concentration eliciting 50% inhibition of cell proliferation
# Method: as §1
# [4] = tested on: A375 (melanoma); experiment: In vitro cytotoxic activity (MTT) assay, A375; type: cell-based; settings: Homo sapiens, A-375; A375 (melanoma) cells, exposed 96 hours; read-out: IC50, concentration eliciting 50% inhibition of cell proliferation
# Method: as §1
# [5] = tested on: PC3 (prostate); experiment: In vitro cytotoxic activity (MTT) assay, PC3; type: cell-based; settings: Homo sapiens, Prostate cell; PC3 (prostate) cells, exposed 96 hours; read-out: IC50, concentration eliciting 50% inhibition of cell proliferation
# Method: as §1
# [6] = target: T1, recombinant human CK2 (RRββ-holoenzyme) (Homo sapiens, UniProt P68400); experiment: CK2 Kinase Assay (33P-ATP, substrate peptide RRRDDDSDDD); type: biochemical; settings: final ATP concentration 15 μM, 10 min at 30° C.; read-out: protein kinase CK2 IC50
# T1 construct: purchased Millipore
# T1 sequence (P68400 whole entry): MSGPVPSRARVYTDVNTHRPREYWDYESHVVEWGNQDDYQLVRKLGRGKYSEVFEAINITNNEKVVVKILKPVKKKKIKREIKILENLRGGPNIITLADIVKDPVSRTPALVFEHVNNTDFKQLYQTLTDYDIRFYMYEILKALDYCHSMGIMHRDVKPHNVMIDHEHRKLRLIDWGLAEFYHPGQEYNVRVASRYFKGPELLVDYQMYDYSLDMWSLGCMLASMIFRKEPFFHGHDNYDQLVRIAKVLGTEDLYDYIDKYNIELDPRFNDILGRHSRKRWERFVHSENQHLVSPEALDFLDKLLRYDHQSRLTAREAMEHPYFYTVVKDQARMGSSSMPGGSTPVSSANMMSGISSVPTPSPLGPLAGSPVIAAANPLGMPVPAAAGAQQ
# T1 sequence (P67870 whole entry partner): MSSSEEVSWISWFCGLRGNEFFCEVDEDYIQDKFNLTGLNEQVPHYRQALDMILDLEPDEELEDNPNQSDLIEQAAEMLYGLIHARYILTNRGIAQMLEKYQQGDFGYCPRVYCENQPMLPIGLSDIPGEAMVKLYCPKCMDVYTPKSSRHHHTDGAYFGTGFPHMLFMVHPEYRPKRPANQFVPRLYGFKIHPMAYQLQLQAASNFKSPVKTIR
# Method: CK2 Kinase Assay was conducted using the protocol as described in Pierre F. et al; J. Med. Chem. 2011, 54, 635-654. The tested compounds in aqueous solution were added at a volume of 10 μL to a reaction mixture comprising 10 μL of assay dilution buffer (ADB; 20 mM MOPS, pH 7.2, 25 mM β-glycerol phosphate, 5 mM EGTA, 1 mM sodium orthovanadate, and 1 mM dithiothreitol), 10 μL of substrate peptide (RRRDDDSDDD, dissolved in ADB at a concentration of 1 mM), 10 μL of recombinant human CK2 (RRββ-holoenzyme, 25 ng dissolved in ADB; Millipore). Reactions were initiated by the addition of 10 μL of ATP solution (90% 75 mM MgCl2, 75 μM ATP (final ATP concentration:15 μM) dissolved in ADB; 10% [γ-33P] ATP (stock 1 mCi/100 μL; 3000 Ci/mmol (Perkin-Elmer) and maintained for 10 min at 30° C. The reactions were quenched with 100 μL of 0.75% phosphoric acid and then transferred to and filtered through a phosphor cellulose filter plate (Millipore). After washing each well five times with 0.75% phosphoric acid, the plate was dried under vacuum for 5 min and, following the addition of 15 μL of scintillation fluid to each well, the residual radioactivity was measured using a Wallac […]. The IC50 values were derived from eight concentrations of test inhibitors.
# [7] = tested on: MIAPaCa-2 (pancreas); experiment: In vitro cytotoxic activity (MTT) assay, MIAPaCa-2; type: cell-based; settings: Homo sapiens, MIA PaCa-2; MIAPaCa-2 (pancreas) cells, exposed 96 hours; read-out: IC50, concentration eliciting 50% inhibition of cell proliferation
# Method: as §1
# [8] = tested on: MDA-MB-231 (breast); experiment: In vitro cytotoxic activity (MTT) assay, MDA-MB-231; type: cell-based; settings: Homo sapiens; MDA-MB-231 (breast) cells, exposed 96 hours; read-out: IC50, concentration eliciting 50% inhibition of cell proliferation
# Method: as §1
# [9] = tested on: HL60 (leukemia); experiment: In vitro cytotoxic activity (MTT) assay, HL60; type: cell-based; settings: Homo sapiens, HL-60; HL60 (leukemia) cells, exposed 96 hours; read-out: IC50, concentration eliciting 50% inhibition of cell proliferation
# Method: as §1
compound,measurement,setting,value
"O=C(O)c1cc2c([nH]1)c(Nc1cccc(Cl)c1)nc1cnccc12 [Compound 1, 4-((3-chlorophenyl)amino)-3H-pyrrolo[2,3-c][1,7]naphthyridine-2-carboxylic acid]",IC50,[1],1400 nM
same,IC50,[2],4200 nM
same,IC50,[3],1800 nM
same,IC50,[4],2300 nM
same,IC50,[5],1500 nM
same,IC50,[6],26 nM
same,IC50,[7],1700 nM
same,IC50,[8],3600 nM
same,IC50,[9],3100 nM
